Results on eleven molecules are retold here after US20170233637A1, “METHODS FOR INHIBITING METAL CORROSION” (OHIO UNIVERSITY, priority 2014, published 2017).

The structures appear in SMILES notation. In brackets after ≈: the same amount, converted by molar mass. Several values for one entry are separate records, joined by “and”; a condition that tells them apart may be missing. Identical values can stand only once. Like-named read-outs stand apart in the source and are kept apart here.

The conditions of data set [1]: cited from earlier work; for Pvapor (vapor pressure): at 25° C.; for Calculated vapor pressure: at 200° C., Yaws and Yang 1989.
The nature of data set [2]: VCI screening in bulk solution (BLC rate by linear polarization resistance, OCP, solution pH). To be noted: for inhibition properties in the tested water phase (VCI screening in bulk solution): 400 ppmv, 1 wt % NaCl. As for the experimental part: Other measurements of the effectiveness of the VCI composition to inhibit corrosion may be derived from Open Circuit Potential (OCP) and Linear Polarization Resistance (Rp) experiments. In the volatile thiol screening test, a potentiostat was used to measure the Rp and the OCP of the ferrous metal sample. Corrosion rate in the water phase (BLC rate) is proportional to the corrosion current density (icorr), which was then calculated by using a B constant value of 0.026 V/decade (icorr=B/Rp/S in which S is surface area of the sample).
A three electrode system was used in which an X65 rotating cylinder electrode (1000 RPM) was the working electrode 12, a Pt wire was used as counter electrode 14, and Ag/AgCl as the reference electrode 16. A pH probe 18 was used to measure the pH of the solution before and after adding the VCI candidates. The experiments were performed at 25° C. and 1 bar total pressure (pCO2=0.96 bar).
In the VCI screening test, a potentiostat was used to measure the polarization resistance (Rp) of the X65 sample. Corrosion rate in the water phase (BLC rate) is proportional to the corrosion current density (icorr) which was then calculated by using a B constant value of 0.026 V/decade (icorr=B/Rp/S in which S is surface area of the sample).
A baseline test was performed in the absence of the VCI candidate compound. […] Dibutyl sulfide was used to compare the sulfide functional group versus the thiol functional group.
For the VCI screening tests, a 1 wt % NaCl solution was prepared and purged with CO2 for 2 hours at 25° C. before injecting the VCI candidate. […] After that the Open Circuit Potential (OCP) and Linear Polarization Resistance (LPR) were measured every 10 minutes during an exposure time of 3-4 hours. The pH of the solution was measured before and after adding the VCI candidate. Electrolyte resistance (ER) was measured by Electrochemical Impedance Spectroscopy (EIS).

For data set [3] the following is noted: cited from earlier work; for Solubility: at 77° C.; for Water solubility: temperature not given.
Data set [4] in a line: Efficacy test of VCI candidates for top of the line corrosion (weight loss, ASTM G1; surface analysis). To be noted: for TLC rate / TLC rate (weight loss): uninhibited 1.06 mm/y; for surface of the X65 TLC specimen: 100 and 400 ppmv in the bulk, after 2 days; for TLC rate (weight loss): 2 days. The procedure:
The temperatures of the bottom solution and gas phases were controlled by a heater, while temperature of the specimen at the top was controlled by cooling water. Through coil 20, a condenser 22 was used to prevent water and VCI vapor loss.
In the VCI efficacy test, corrosion rate of the specimen at the top (TLC rate) was measured by weight loss following the ASTM G1 standard. Sample surface was characterized by Scanning Electron Microscopy (SEM)/Energy Dispersive X-ray Spectroscopy (EDS).
1-hexanethiol, 1-decanethiol and 1-dodecanethiol were chosen based on the results in the VCI screening test, data from which will be shown below. In addition, the effect of acetic acid and MEG on the inhibition performance of the best VCI candidate was also taken into account.
For the efficacy tests of VCI candidates for TLC, 1 wt % NaCl was also prepared and purged with CO2 for 2 hours. In order to have a gas temperature of 65° C., the bottom solution was heated to 77° C. After that the selected concentration of the VCI candidates (Table 3) was added into the bulk solution. A weight loss specimen 24, after being ground (with up to 600 grit abrasive paper), was flush-mounted at the top of the experimental setup, controlling its temperature at 32° C. using cooling water. The weight loss sample and ER probe were added 0.1 hour after addition of the VCI candidate. The weight loss samples were withdrawn after 48 hours for surface analysis and weight loss measurement.
FIG. 15 indicates the conditions for the TLC tests. The temperatures at the bottom, in the vapor phase, and at the top were 77° C., 65° C., and 32° C. respectively. The experiment was performed in the CO2 environment (total pressure=1 atm).

A short description of data set [5]: Solubility in water of VCI candidates. To be noted: at 25° C.; converted to ppm by volume using density value.
For data set [6] the following is noted: carbon dioxide saturated environment; cited from earlier work.
[7] abbreviates: 400 ppmv VCI added before electrode insertion, CO2 saturated 1 wt % NaCl, 25° C., baseline 2.3 mm/y.
Where [8] appears, read: at 25° C., data from www.lookchem.com.

Take `CCCCCCCCCCS` [1-decanethiol]: the “Pvapor (vapor pressure)” value in data set [1] is 0.06 mmHg. The BLC rate in data set [2] (setting [7]) is 0.01 mm/y; in data set [2] (400 ppmv injected after electrode insertion (X65 pre-corroded almost one hour), decreased from 2.4 mm/y), 0.05 mm/y. Further, the “inhibition properties in the tested water phase (VCI screening in bulk solution)” value (from here on “inhibition properties”) in data set [2] is listed as “had inhibition properties”. The Solubility limit in data set [3] (setting [8]) is listed as 2.14 mg/L (≈ 12.3 µM); in data set [3] (at 32° C.) it was 3.63 ppmv. In data set [3], the Solubility is 24.8 ppmV. Further, in data set [3], the Water solubility was around 2.14 µg/mL. Also, the TLC rate in data set [4] (1 ppmv at the bottom) was determined as 0.21 mm/y; in data set [4] (10 ppmv at the bottom) it was 0.12 mm/y. Also, the “surface of the X65 TLC specimen” value in data set [4] was “fully protected”. The “protection of the X65 specimen in the presence of acetic acid” value in data set [4] (100 ppmv VCI with 500 ppmv acetic acid) is listed as “effective in fully protecting”. Also, the “TLC rate (weight loss)” value in data set [4] (400 ppmV at the bottom) was 0.02 mm/y. The “weight loss for the calculation of corrosion rate” value in data set [4] (above the solubility limit (100 ppmv and 400 ppmv)) is “no measurable weight loss”. Further, the “average vapor phase corrosion rate” value in data set [4] (with or without 50 wt. % MEG, 400 ppmV per test matrix) is on record as “around 0.04 mm/y”.

In data set [5], `CCCCCCCCCCCCS` [1-dodecanethiol] registered a Solubility of 0.22 ppmV. Also, in data set [1], the “Pvapor (vapor pressure)” value was 0.007 mmHg. Moreover, the “inhibition properties” value in data set [2] was “had inhibition properties”. For the same molecule, the Solubility limit in data set [3] (setting [8]) was 0.18 mg/L (≈ 0.889 µM). In data set [3], the Solubility is listed as 3 ppmV and the Water solubility is around 0.225 µg/mL. Further, in data set [4] (400 ppmV at the bottom), the “TLC rate (weight loss)” value was 0.02 mm/y.

`CCCCCCS` [1-hexanethiol]: the Solubility in data set [5] is 212.35 ppmV and 212.4 ppmV; in data set [3], 1013.0 ppmV. For the same molecule, the “Pvapor (vapor pressure)” value in data set [1] is on record as 4.5 mmHg. The BLC rate in data set [2] (setting [7]) was determined as 0.01 mm/y. In addition, the “inhibition properties” value in data set [2] is on record as “had inhibition properties”. Moreover, the Solubility limit in data set [3] (setting [8]) is 177.1 mg/L (≈ 1500 µM). The Water solubility result in data set [3] is reported as “about 177.1 mg/L”. Also, the “surface of the X65 TLC specimen” value in data set [4] is “partially protected”. Besides, the entries for the “TLC rate (weight loss)” value in data set [4] (100 ppmV at the bottom) and in data set [4] (400 ppmV at the bottom) were 0.11 mm/y and 0.13 mm/y, respectively. Also, the “TLC rate, times lower than the baseline test” value in data set [4] (100 ppmv and 400 ppmv in the bulk) is on record as 10 times. In addition, the localized corrosion rate in data set [4] (400 ppmv in the bulk, profilometry after removing corrosion product, 2 day experiment) came to 1.46 mm/y. For the same molecule, the “depth of the deepest pit on the surface” value in data set [4] (400 ppmv in the bulk, profilometry, 2 day experiment) is “about 8 micrometers”.

In the case of `O=C(O)CCCCCCCCCCS` [11-MUA, 11-mercaptoundecanoic acid], the “Pvapor (vapor pressure)” value in data set [1] was 3.7 × 10^−5 mmHg. Also, in data set [3], the Solubility is reported as 89 ppmV and the Water solubility entry is on record as “about 13.8 mg/L”. The “TLC rate (weight loss)” value in data set [4] (100 ppmV at the bottom) worked out at 0.02 mm/y.

For `OCCCCCCCCCCCS` [11-Mercapto-1-undecanol], in data set [3], the Water solubility entry was “about 10.3 mg/L”.

Turning to `CCCCCCCCCCCCCCCS` [C15], the Calculated vapor pressure in data set [1] is reported as 26.5 mmHg.

Consider `CCCCCCCCCCCCCCCCS` [C16], for which, in data set [1], the Calculated vapor pressure is recorded as 16.7 mmHg.

Regarding `CCCCCCCCCCCCCCCCCS` [C17], the Calculated vapor pressure in data set [1] is 10.7 mmHg.

For `CCCCCCCCCCCCCCCCCCS` [C18], the Calculated vapor pressure in data set [1] is listed as 6.79 mmHg.

In the case of `CCCCSCCCC` [Dibutyl sulfide, reference compound], in data set [2] (setting [7]), the BLC rate entry is “did not significantly change”. The “inhibition properties” value in data set [2] was “did not”. Also, in data set [3] (setting [8]), the Solubility limit was 39.4 mg/L (≈ 269 µM).

Regarding `O=C(O)CS` [Thioglycolic acid], the “effectiveness at inhibiting corrosion” value in data set [6] is reported as “only partially effective”.
